Measurements from the METLIN SMRT retention time set (Domingo-Almenara et al. 2019).

Assay: gradient 5% acetonitrile 3 min, to 50% in 2 min, to 85% in 15 min, held 3 min, 100 µL/min
Conditions: column: Zorbax Extend-C18 2.1 x 50 mm; eluents: water / acetonitrile, 0.1% formic acid
Summary of the method: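 Each retention time is based on an adduct peak selected computationally and verified by manual inspection. Measurements used HPLC–quadrupole time-of-flight mass spectrometry in positive and negative ionization mode on mixtures of ~100 pure standards. Chromatography ran on a Zorbax Extend-C18 column (2.1 × 50 mm, 1.8 μm) at 100 μL/min with water and acetonitrile, each containing 0.1% formic acid, and dead and dwell volumes of 40 μL and 900 μL.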

Row | Compound | RP-LC retention time
1 | CN(Cc1ccccc1)C(=O)Cn1cccc1-c1nnc(-c2ccccc2)o1 | 940 s
2 | CCNS(=O)(=O)c1cccc(-c2nc(-c3ccc(C)cc3)no2)c1 | 1100 s
3 | Cc1cc(C)c2c(N3CCSCC3)nc(C(=O)N(C)Cc3ccccc3)nc2n1 | 682 s
4 | CC(C)CN1C(=O)c2cccn2CC1CNC(=O)c1ccco1 (configuration not stated) | 672 s
5 | COc1ccc(NC(=O)CSc2nnc(CNC(=O)c3cccs3)o2)c(OC)c1 | 614 s
6 | CCOC(=O)C1CCN(C(=O)CCc2cc3cc(OC)ccc3[nH]c2=O)CC1 | 701 s
7 | O=C1NCCCCCCN(Cc2ccc(F)cc2F)[C@H]2CCC[C@@H]12 | 646 s
8 | COc1cc(=O)oc(/C=C/C=C/C=C/C(C)=C/C2(C)OC(C)C(C)(O)C2O)c1C (configuration not stated) | 846 s
9 | COCCOC(=O)C1=C(C)NC2=C(C(=O)C(C(=O)OC)C(C)C2)C1c1cccc(Cl)c1 (configuration not stated) | 899 s
10 | CC(=O)Nc1ccc(OCC(=O)N(C)Cc2ccccc2)nc1 | 544 s
11 | O=C(N[C@@H]1CN(c2ncccn2)C[C@H]1CO)c1ccc(F)cn1 | 595 s
12 | COc1ccccc1N1CCN(c2ncccc2-c2nc(-c3ccccc3)no2)CC1 | 1140 s
13 | COc1ccc(C2Cn3cnc(C(=O)N4CCC(C(=O)NC5CCCCC5)CC4)c3CO2)cc1 (configuration not stated) | 697 s
14 | CCCCNC(=O)C1CCCN(c2nnc(C)c3c(C)n(-c4ccc(C)cc4)nc23)C1 (configuration not stated) | 733 s
15 | Cn1nc(Br)nc1Sc1ccccc1NC(=O)C1CC1 | 763 s
16 | COc1ccc(C(=O)Nc2nsc(-c3ccccc3)n2)cc1 | 778 s
17 | CCCN1CCN(CCNC(=O)CCc2cc3ccc(C)cc3[nH]c2=O)CC1 | 571 s
18 | CC1Cc2ccccc2N1C(=O)C12CCC(C)(C(=O)O1)C2(C)C (configuration not stated) | 1000 s
19 | CCCN(C)c1ccc2ncc(=O)n(C)c2n1 | 923 s
20 | CCOC(=O)c1cc(C)n(CC(=O)N2CCOCCNC(=O)CC2)c1C | 652 s

Row | Compound | RP-LC retention time
21 | CC(=O)Nc1ccc(S(=O)(=O)NCc2nc(C)no2)cc1 | 599 s
22 | CN(C)c1ccc(CNC(=O)C2CCN(c3cncnc3N3CCCCC3)CC2)cc1 | 564 s
23 | CCCN(CC1CCOC1)C(=O)Nc1ccccc1 (configuration not stated) | 575 s
24 | CCN1C(=O)C(CC(=O)NC2CCCCC2)Sc2ncccc21 (configuration not stated) | 743 s
25 | COc1ccc(C(=O)N[C@@H]2CCC[C@@H]2C(=O)N(C)C)cn1 | 595 s
26 | CN(C)c1ccc(-c2nc3cnccn3c2Nc2ccccc2)cc1 | 745 s
27 | COc1ccccc1-c1nc(Cn2nnc(-c3nc(-c4cccs4)no3)c2C)c(C)o1 | 1050 s
28 | Cc1ccc2nc(C(=O)NCc3ccc4c(c3)OCO4)cn2c1 | 628 s
29 | CCc1csc(-c2ccc(N3CCN(C(=O)c4cccs4)CC3)nc2)n1 | 900 s
30 | CCOc1ccccc1C1NC(=O)N(CC(=O)NC2CCCCC2)C2=C1C(=O)OC2 (configuration not stated) | 722 s
31 | CCN(CC)C(=O)c1ccc(-c2nc3cc(NS(=O)(=O)c4ccc(F)cc4)ccc3n2C)cc1 | 699 s
32 | O=C(CCNc1cnc2cnccn12)NCc1ccc(C(F)(F)F)cc1 | 611 s
33 | O=C(CN1C(=O)CSCC1=O)Nc1ccc2c(c1)OCO2 | 638 s
34 | CN(C)C[C@@H]1CN(S(C)(=O)=O)C[C@H]1NC(=O)c1cccs1 | 569 s
35 | CCc1nc(-c2cccc(-c3noc(CNS(=O)(=O)c4ccccc4)n3)c2)cs1 | 1070 s
36 | CCC(C)NC(=O)N1CCc2c(c(-c3nc(-c4ccc(F)cc4)no3)nn2C)C1 (configuration not stated) | 594 s
37 | CC1CCN(c2nc(C(=O)N3CCN(c4ccccc4)CC3)nc3c2cnn3C)CC1 | 956 s
38 | CCc1ccc(N2CC(c3noc(-c4ccccc4C)n3)CC2=O)cc1 (configuration not stated) | 1160 s
39 | O=C(Cn1nc(C(=O)N2CCOCC2)cc1C1CC1)NCCCN1CCCC1=O | 566 s
40 | O=C(Nc1ccc(Cn2cnc(C(=O)NCc3ccc(F)cc3)c2)cc1)c1cccc(F)c1 | 769 s

Other lines, results leading:

Row | RP-LC retention time | Compound
41 | 892 s | O=S(=O)(c1cccc(-c2nnc(-c3ccc(F)cc3)o2)c1)N1CCOCC1
42 | 801 s | Cc1ccc(NC(=O)N2CCC(n3cnc4c(C)cccc4c3=O)CC2)cc1
43 | 716 s | Cc1cccc(NS(=O)(=O)c2cc(-c3[nH]ncc3C(=O)N3CCCC3)oc2C)c1
44 | 714 s | O=S(=O)(Nc1ccc(Cn2cncn2)cc1)c1ccc(F)cc1F
45 | 725 s | COc1cccc(NC(=O)Cn2cnc(-c3noc(C4CC4)n3)c2)c1
46 | 955 s | Cc1ccc(Cn2c(N3CCCC(C(=O)NCC(C)C)C3)nc3ccsc3c2=O)cc1 (configuration not stated)
47 | 1010 s | CN(Cc1ccco1)S(=O)(=O)c1ccc(C(=O)Nc2cccc(Cl)c2Cl)cc1
48 | 892 s | CN1C(=O)Cc2cc(C(=O)NC3CCN(Cc4ccccc4)CC3)ccc21
49 | 1180 s | CCc1cc(=O)n(CC(=O)Nc2cc(F)ccc2F)c(-c2ccccc2)n1
50 | 1040 s | Cc1cccc(Cn2nc3ccc(S(=O)(=O)N4CCC(C)CC4)cn3c2=O)c1
51 | 1070 s | O=C1CC(c2noc(-c3ccc(F)c(Cl)c3)n2)CN1c1ccc(F)cc1 (configuration not stated)
52 | 1020 s | Cc1ccc(S(=O)(=O)N2CCCC2C(=O)Nc2ccc(Br)cc2)cc1 (configuration not stated)
53 | 619 s | Cc1noc(C)c1S(=O)(=O)N1CCC(Cc2nc(-c3ccncc3)n[nH]2)C1 (configuration not stated)
54 | 1030 s | Cc1ccc(NC(=O)N2CCCC2c2nc(-c3ccccc3)no2)cc1C (configuration not stated)
55 | 888 s | Cc1cc(Cl)ccc1N1C(=O)CN(S(C)(=O)=O)CC1(C)C(=O)NCc1ccc(F)cc1 (configuration not stated)
56 | 673 s | Cc1cc(=O)n(CC(=O)Nc2cccc(C)c2C)c(N2CCOCC2)n1
57 | 722 s | Cn1c(C2CCN(S(=O)(=O)c3ccc(F)c(Cl)c3)CC2)cc(=O)n2nccc12
58 | 722 s | CC(=O)N1CCCn2nc(-c3cccc(F)c3)cc2C1
59 | 632 s | CCOc1ccc(S(=O)(=O)N2CCC(C(=O)NC3CCCC3)CC2)cc1
60 | 564 s | Cc1ccc(Cn2cc(-c3ccncc3)cc2C(=O)N2CCC(N3CCCCC3)CC2)cc1
61 | 579 s | CN(C)C(=O)CN1CCN(c2cc(C(=O)O)c3cc(NC(=O)c4ccc(F)cc4)ccc3n2)CC1
62 | 999 s | COC(=O)c1cc(S(=O)(=O)N2CCCC2C(=O)Nc2ccc(Br)cc2F)cn1C (configuration not stated)
63 | 804 s | CCOc1ccc(S(=O)(=O)N(C)C2CCc3nn(CC4CC4)c(=O)n3CC2)cc1 (configuration not stated)
64 | 737 s | COc1cccc(N2CCN(C(=O)C3CCCN(c4cnc5nccnc5c4)C3)CC2)c1 (configuration not stated)
65 | 1050 s | Cc1ccc(-c2ccc(=O)n(Cc3noc(C(=O)N4CCC(C)CC4)n3)n2)cc1C
66 | 1050 s | Cc1c(Cl)cccc1S(=O)(=O)N1CCC2(CC1)OCCS2
67 | 600 s | Cc1[nH]c(=O)[nH]c(=O)c1CCC(=O)N1CCC(c2nc3ccccc3o2)CC1
